Measurements from patent US20240263207A1, “IN VIVO FLUORINATION” (Danmarks Tekniske Universitet, priority 2018, published 2024).
Read-outs that look alike come from different tables or passages of the source.

Tests used:
[1] = test system: XylS/Pm system; conditions: Calero 2016; cited from earlier work
[2] = biological target: T1, nucleosidase, coded by the gene pfs (Escherichia coli, UniProt P0AF12); assay: In vitro conversion of 5′-FDA by cell extracts expressing Pfs; type: biochemical, E. coli; conditions: 20 hours
T1 construct: made in house; host or cells: Pseudomonas putida (pPS23 vector, XylS/Pm system; crude cell extract, not purified)
Method: (§1) The E. coli purine nucleotide phosphorylase, coded by the gene deoD (SEQ ID NO: 14), as well as the nucleosidase pfs (SEQ ID NO: 16), were amplified by PCR from the genome of the strain MG1655 using reverse primers containing the sequence to introduce a 6×His tag, in order to allow purification if needed. These fragments were respectively mixed with a PCR fragment amplified with USER primers of the pPS23 vector, containing the XylS/Pm expression system. The cloning was performed by USER cloning as described above.
(§2) We furthermore explored the possibility that 5′-FDA could be utilized for other enzymes different to the endogenous of the fluorination pathway from Streptomyces. For this purpose, we used another PNP and a nucleosidase of E. coli. The E. coli PNP, coded by the gene deoD (SEQ ID NO: 14), is able to perform the same reaction as FlB1, and produce 5′-FDRP, whereas the nucleosidase, coded by the gene pfs (SEQ ID NO: 16), removes the […] of 5′-FDA, yielding the sugar 5′-fluorodeoxyribose. These three enzymes share a similarity of 26% in their amino acidic sequence, and contain a common domain, the PNP_UDP_1 domain (PF0148), belonging to the Phosphorylase superfamily. To test the activity of these two enzymes, they were overexpressed in P. putida and the cell extracts were incubated with the substrate 5′-FDA.

[3] = test system: PNP FlB1; assay: In vitro phosphorylase activity assay with cell extracts expressing FlB1; type: biochemical, Streptomyces sp. MA37; conditions: 20 hours of incubation, extracts with plasmid pFB-T7FlB1(NHis)
Method: In vitro biofluorination was performed with the strain P. putida KT2440 harboring the plasmids pFB-PmflA1, pFB-PT7flB1(NHis), and pFB-PT7flA1, and pPS23 or pSEVA231-PT7pr as negative controls, respectively. Overnight cultures of the strains were diluted to an OD600 of 0.1 in fresh minimal medium, in 250-ml shake flasks. Cells were grown for six hours at 30° C. with shaking of 200 rpm, when they reached an OD600 between 0.4-0.6, after which they were induced with 3-MB 1 mM for the XylS/Pm system or 15 mM of NaF for the FRS-PT7. After 20 hours of incubation, all the volume of culture was centrifuged at 5000 rpm for 10 minutes at 4° C., and the supernatant was discarded. Cellular pellets were washed with Tris-HCl 50 mM pH7.8 and resuspended in a final volume of 3 ml. Cells were disrupted using glass beads in a bead beater, using a program of 6000 rpm for 20 seconds. […] Protein concentrations were determined using a Bradford assay, yielding a concentration of at least 1 mg/ml.
Similarly, for phosphorylase activity assays, 1 ml of the protein fraction from cultures expressing the phosphorylase was then mixed with 0.2 mM of 5′-FDA, in Tris-HCl 50 mM pH7.8. […] After 20 hours of incubation at 30° C., the rest of the reaction was inactivated as described before and the supernatant was taken and analyzed by HPLC. […]

[4] = biological target: T2, E. coli PNP, coded by the gene deoD (Escherichia coli, UniProt P0ABP8); assay: In vitro conversion of 5′-FDA by cell extracts expressing DeoD; type: biochemical; conditions: 20 hours
T2 construct: made in house; host or cells: Pseudomonas putida (pPS23 vector, XylS/Pm system; crude cell extract, not purified)
Method: as §1, §2

[5] = test system: P. putida KT2440ΔcrcB
Method: (§3) Overnight cultures of P. putida KT2440 and P. putida KT2440ΔcrcB were diluted 20 times in 10 mL of modified M9 minimal medium containing different concentrations of NaF. Cells were grown in 96-well microtiter plates (flat bottom, Greiner Bio-one) at 30° C. and 200 rpm in an ELx808 microtiter plate reader (BioTek). Cells exposed to NaF at various concentrations were incubated in a microtiter plate reader for 24 hours, and growth was followed by measuring OD630 every 30 minutes. The concentrations used for each strain were 0, 25, 50, 75, 125, 200 and 250 mM for P. putida KT2440, and 0, 0.1, 0.5, 1 and 5 mM for P. putida KT2440ΔcrcB.
(§4) The effect of the deletion of crcB on the growth in the presence of high concentrations of NaF in P. putida KT2440 was assessed by calculating the minimal inhibitory concentrations (MICs) of NaF needed to suppress the growth in both a wild-type and a ΔcrcB mutant.

[6] = test system: FRS-PT7 system; assay: Expression assay, FRS-PT7 system with PT7-msfgfp in P. putida KT2440ΔcrcB::FRS-T7RNAP; type: cell-based, Pseudomonas putida; conditions: lower NaF concentrations than in the P. putida KT2440 background
Method: (§5) Overnight cultures of P. putida KT2440 with plasmids pSEVA441-FRSv1, pSEVA441-FRSv2, pSEVA441-FRSv3, pSEVA441-FRSv4, or pSEVA441 as autofluorescence control, were diluted 40 times in 10 ml of minimal medium. […] Subsequently, kinetics of the growth and fluorescence, using wavelengths of excitation and emission of 485 nm and 528 nm, respectively, were performed using a SynergyMX (BioTek) microtiter plate reader for 20 hours. Measurements for kinetics were carried out every ten minutes and three independent biological replicates were carried out. The same procedure was carried out with P. putida KT2440::FRS-T7RNAP and P. putida KT2440ΔcrcB::FRS-T7RNAP strains containing the plasmid pSEVA231-T7pr::msfGFP as well as with the plasmid pSEVA231-T7pr, used as an autofluorescence control.

[7] = test system: FRS-PT7 system
Method: as §5

[8] = test system: F^− responsive riboswitch (FRS) from P. syringae; assay: Expression assay, FRS constructs FRSv1-4 before msfGFP in P. putida KT2440; type: cell-based, Pseudomonas putida; conditions: 0, 1, 5 and 15 mM of NaF
Method: Overnight cultures of P. putida KT2440 with plasmids pSEVA441-FRSv1, pSEVA441-FRSv2, pSEVA441-FRSv3, pSEVA441-FRSv4, or pSEVA441 as autofluorescence control, were diluted 40 times in 10 ml of minimal medium. […] Subsequently, kinetics of the growth and fluorescence, using wavelengths of excitation and emission of 485 nm and 528 nm, respectively, were performed using a SynergyMX (BioTek) microtiter plate reader for 20 hours. Measurements for kinetics were carried out every ten minutes and three independent biological replicates were carried out.
To check the performance of the riboswitch in P. putida KT2440 we cloned four different versions of the riboswitch before the fluorescent reporter protein msfGFP. In the constructions FRSv1 and FRSv2 we kept the original promoter of gene eriC^F, whereas in FRSv3 and FRSv4 we changed the promoter to a constitutive heterologous promoter, PEM7. In the constructions FRSv1 and FRSv3 we conserved the first 8 amino acids of the original eriC^F gene as well, whereas FRSv2 and FRSv4 started with the coding sequence of the msfGFP (FIG. 2).

[9] = test system: P. putida KT2440ΔcrcB; conditions: data not shown
Method: Growth arrest by NaF in P. putida KT2440ΔcrcB was performed by diluting 20 times the overnight cultures in 10 mL of modified M9 minimal medium. Cells were grown in 96-well microtiter plates (flat bottom, Greiner Bio-one) at 30° C. and 200 rpm in an ELx808 microtiter plate reader (BioTek). After six hours of incubation, the cultures had reached an OD630 of 0.5, and the NaF was added at different concentrations. Cells exposed to the stressor were incubated in a microtiter plate reader for 24 hours, and growth was followed by measuring OD630 every 30 minutes. The concentrations of NaF used were 0, 0.05, 0.1, 0.5, 0.75, 1, 2 and 5 mM.
To explore the possibility of having a growth-decoupled platform for biofluorination, we tested the effect of NaF in the growth when added in mid-exponential phase.

[10] = test system: P. putida KT2440; conditions: minimal medium, A600 after 20 hours
Method: as §3, §4

T1 sequence (P0AF12 whole entry): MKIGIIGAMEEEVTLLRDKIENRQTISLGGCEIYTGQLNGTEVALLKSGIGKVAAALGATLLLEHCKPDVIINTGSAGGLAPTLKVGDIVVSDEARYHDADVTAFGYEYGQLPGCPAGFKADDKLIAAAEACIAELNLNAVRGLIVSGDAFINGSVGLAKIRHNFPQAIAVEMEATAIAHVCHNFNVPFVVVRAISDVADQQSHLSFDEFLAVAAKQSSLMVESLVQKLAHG
T2 sequence (P0ABP8 whole entry): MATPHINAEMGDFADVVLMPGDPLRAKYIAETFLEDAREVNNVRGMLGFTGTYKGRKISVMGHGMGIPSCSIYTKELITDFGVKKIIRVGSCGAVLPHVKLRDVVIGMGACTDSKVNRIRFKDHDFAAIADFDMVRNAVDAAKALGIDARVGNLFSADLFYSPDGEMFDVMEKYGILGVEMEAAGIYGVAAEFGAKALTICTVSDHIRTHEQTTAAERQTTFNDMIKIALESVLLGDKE

Compound: Cc1cccc(C(=O)O)c1 [3-MB, 3-methylbenzoate]
- Inducer concentration needed to achieve full expression [1]: 0.5 mM

Compound: Nc1ncnc2c1ncn2[C@@H]1O[C@H](CF)[C@@H](O)[C@H]1O [5′-FDA, 5′-fluoro-5′-deoxyadenosine]
- Consumption of substrate 5′-FDA (product 5′-fluorodeoxyribose detected by LC-MS) [2]: reduced or depleted completely
- Change of 5′-FDA concentration versus initial concentration [3]: a decrease in the concentration of 5′-FDA
- Consumption of substrate 5′-FDA (product 5′-FDRP detected by LC-MS) [4]: reduced or depleted completely

Compound: [Cl-].[Na+] [NaCl, reference compound]
- Effect on growth of the ΔcrcB mutant versus wild-type ([5]; same assays in the presence of NaCl, data not shown): no such effect was seen

Compound: [F-].[Na+] [NaF, Sodium fluoride]
- Expression levels relative to the wild-type background [6]: almost two times higher than in the wild-type background
- Fluorescence response of the FRS-PT7 system ([7]; 0, 1 and 15 mM of NaF): led to an increase of the cells fluorescence
- Final growth of the cultures ([7]; NaF concentrations used for induction (up to 15 mM)): not affected
- Fluorescence response of the four FRS constructs [8]: an increase of the fluorescence when higher concentrations of NaF were used
- Effect on growth ([9]; 0.5 mM of NaF added in mid-exponential phase): a decrease in the growth phase was found
- Effect on growth ([9]; 1 mM of NaF added in mid-exponential phase): stopped cell growth almost completely
- NaF concentration in which the strain was able to thrive (MIC assay) [10]: 75 mM
- Growth inhibition on plates ([5]; LB plates containing 0.5 and 1 mM of NaF): This effect was also seen
- NaF concentration at which the strain was not able to grow (MIC assay) ([5]; minimal medium, A600 after 20 hours): 0.5 mM
